Assay results taken from US20190302100A1, “METHOD FOR PREPARING LIVER PROGENITOR CELLS” (National Cancer Center, priority 2016, published 2019).

Legend:
CYP1A2 = test: Activity of metabolic enzyme CYP1A2 (Luciferin 1A2 kit) in hepatocytes taken out from transplanted cDNA-uPA/SCID mice; assay type: cell-based, human
From the text: After that, cDNA-uPA/SCID mice (2 to 4 M, Male; manufactured by PhoenixBio Co., Inc.) were subjected to laparotomy under isoflurane anesthesia, the spleen was exposed, 0.5×10^5 to 2×10^6 liver progenitor cells per mouse were implanted, and then the abdomen was sutured. On day 73 after implantation, the liver was removed and perfused. Hepatocytes were separated, and cultured for 4 days on 24-well collagen plates (manufactured by IWAKI) at 4×10^5 cells/well using 2% FBS-SHM medium.
(§1) For the hepatocytes taken out from the mice, the activity of the metabolic enzyme CYP1A2 was measured using methanol (MeOH, at a concentration of 1%) and omeprazole (OMP, 50 μM). […] The activities of these metabolic enzymes were measured with Luciferin 1A2 kit and Luciferin-IPA kit from Promega, respectively.

CYP3A4 = system: CYP3A4
Method: On day 73 after implantation, the liver was removed and perfused. Hepatocytes were separated, and cultured for 4 days on 24-well collagen plates (manufactured by IWAKI) at 4×10^5 cells/well using 2% FBS-SHM medium.
as §1

Compound | CYP1A2 induction (CYP1A2; Example 14: cells from donor 10 M, omeprazole 50 μM vs methanol 1%) | CYP1A2 induction (CYP1A2; Example 15: cells from donor 8 M, as in Example 14) | CYP3A4 induction (CYP3A4)
COc1ccc2[nH]c([S+]([O-])Cc3ncc(C)c(OC)c3C)nc2c1 (stereo not drawn) [omeprazole] | induced | induced | –
CCC1(c2ccccc2)C(=O)NC(=O)NC1=O [phenobarbital] | – | – | induced
